Our source for the GI50 and TGI values is PubChem BioAssay (NCI).

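Each compound was tested at five concentrations against cells in 96-well plates for 48 hours. GI50 marks 50% less growth. TGI marks complete inhibition of growth.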

Among the test systems are SK-MEL-28 melanoma; 786-0 renal; HOP-62 NSCLC; TK-10 renal; T-47D breast; CAKI-1 renal; SF-539 CNS; NCI-H522 lung.
What all share (test): inhibition of tumour cell growth, NCI panel, 48 h

`O=C(C(=CN1CCN(C(=O)c2ccco2)C1=S)C(=O)c1ccccc1)c1ccccc1`: the GI50 with SK-MEL-28 melanoma was 17.8 µM; with 786-0 renal, 8.23 µM; with HOP-62 NSCLC, 15.9 µM; with TK-10 renal, 6.87 µM; in the assay on T-47D breast, over 50 µM; in the assay on CAKI-1 renal, 6.98 µM. Moreover, the TGI was over 50 µM with SK-MEL-28 melanoma; 19.2 µM in the assay on 786-0 renal; 44.2 µM in the assay on HOP-62 NSCLC; 22.1 µM in the assay on TK-10 renal; over 50 µM in the assay with T-47D breast; 17.2 µM in the assay with CAKI-1 renal.
Take `O=C(CI)Nc1ccc(Br)cc1`: the GI50 in the assay on SF-539 CNS is 1.81 µM; with SK-MEL-28 melanoma, 3.82 µM; in the assay on 786-0 renal, 2.23 µM; with HOP-62 NSCLC it was 1.89 µM; in the assay on NCI-H522 lung it was 1.53 µM; in the assay with TK-10 renal, 1.92 µM. The GI50 with CAKI-1 renal was 1.69 µM. For the same compound, the TGI in the assay with SF-539 CNS was determined as 3.67 µM; in the assay with SK-MEL-28 melanoma it was 11.3 µM; in the assay on 786-0 renal, 4.62 µM; in the assay with HOP-62 NSCLC, 3.82 µM; in the assay on NCI-H522 lung, 3.47 µM; with TK-10 renal, 3.63 µM. In the assay with CAKI-1 renal, this compound came in with a TGI of 3.51 µM.
Turning to `S=C(SSC(=S)N1CCCCC1)N1CCCCC1`, the GI50 is 14.2 µM in the assay on SF-539 CNS; 18.9 µM in the assay with SK-MEL-28 melanoma; 14.5 µM in the assay with 786-0 renal; 28.4 µM with HOP-62 NSCLC; 12.2 µM in the assay with NCI-H522 lung; 22.9 µM in the assay with TK-10 renal. For the same compound, the GI50 with CAKI-1 renal was 18 µM. The TGI in the assay on SF-539 CNS is 32.6 µM; in the assay on SK-MEL-28 melanoma, 69.3 µM; in the assay on 786-0 renal it was 28.9 µM; in the assay with HOP-62 NSCLC, over 100 µM; in the assay with NCI-H522 lung, 30.1 µM; with TK-10 renal, 82.2 µM. In addition, the TGI with CAKI-1 renal is over 100 µM.
`CSc1ccc(C(=O)/C=C/c2ccc(Cl)cc2Cl)cc1`: the GI50 is 22 µM in the assay on SF-539 CNS; 16.9 µM in the assay on 786-0 renal; 19.6 µM in the assay with HOP-62 NSCLC; 14.4 µM with NCI-H522 lung; 20.9 µM in the assay with TK-10 renal; 33.4 µM in the assay with CAKI-1 renal. The TGI with SF-539 CNS was found to be 46.9 µM; with 786-0 renal, 36.2 µM; in the assay on HOP-62 NSCLC, 37.5 µM; in the assay with NCI-H522 lung, 37.2 µM; in the assay with TK-10 renal it was 52.9 µM; in the assay on CAKI-1 renal it was 92 µM.
Take `O=C1C(Cl)=C(NCCCN(CCCNC2=C(Cl)C(=O)c3ccccc3C2=O)C2=C(Cl)C(=O)c3ccccc3C2=O)C(=O)c2ccccc21`: the GI50 with SF-539 CNS was 2.45 µM; in the assay on SK-MEL-28 melanoma, 2.15 µM; in the assay with 786-0 renal it was 4.62 µM; in the assay with HOP-62 NSCLC it was 3.8 µM; in the assay with NCI-H522 lung, 1.97 µM; in the assay with TK-10 renal, 17.9 µM. Besides, the TGI with SF-539 CNS was determined as 6.71 µM; in the assay with SK-MEL-28 melanoma, 4.53 µM; in the assay with 786-0 renal it was 18.2 µM; in the assay with HOP-62 NSCLC, 42.3 µM; with NCI-H522 lung, 4.98 µM; in the assay on TK-10 renal, 36.9 µM.
Consider `COc1ccc2nc3ccccc3c(NCCCCN(CCCl)CCCl)c2c1`, for which the TGI with SF-539 CNS stood at 1.26 µM; in the assay on SK-MEL-28 melanoma, 8.02 µM; in the assay on 786-0 renal, 1.64 µM; in the assay on HOP-62 NSCLC, 24.8 µM; with T-47D breast it was 13.8 µM.
For `CCOCCOCCOCCOCCOCCOCCOCCOCCOCCO` (tested in a mixture with another compound), the GI50 in the assay with SK-MEL-28 melanoma was 3.1 µM; in the assay on 786-0 renal it was 2.83 µM; in the assay on HOP-62 NSCLC, 1.07 µM; in the assay with TK-10 renal it was 1.53 µM; in the assay with T-47D breast, 1.12 µM; with CAKI-1 renal, 1.42 µM. In addition, the TGI with SK-MEL-28 melanoma is over 32.5 µM; in the assay with 786-0 renal, 14.4 µM; with HOP-62 NSCLC it was 4.45 µM; with TK-10 renal it was 12.2 µM; with T-47D breast, 7.16 µM; with CAKI-1 renal it was 18.9 µM.
With `O=C(Oc1c(Cl)cc(Cl)cc1Cl)c1ccccc1Nc1ccnc(C(F)(F)F)c1`, the GI50 was 24.1 µM in the assay on SK-MEL-28 melanoma; 2.95 µM with 786-0 renal; 2.66 µM with HOP-62 NSCLC; 5.7 µM in the assay with NCI-H522 lung; 3.41 µM in the assay on TK-10 renal; 8.55 µM in the assay on T-47D breast. In addition, the GI50 in the assay on CAKI-1 renal was 7.12 µM. Also, the TGI in the assay with SK-MEL-28 melanoma was over 100 µM; in the assay with 786-0 renal, 11.1 µM; with HOP-62 NSCLC it was 8.8 µM; with NCI-H522 lung, over 100 µM; with TK-10 renal it was 28.4 µM; in the assay with T-47D breast, over 100 µM. In the assay on CAKI-1 renal, this compound displayed a TGI of over 100 µM.
Consider `O=C1/C(=C/c2ccc(C(F)(F)F)cc2)COc2ccc(O)c(O)c21`, for which the GI50 is 1.14 µM with SF-539 CNS; 1.72 µM in the assay on SK-MEL-28 melanoma; 1.32 µM with 786-0 renal; 1.65 µM in the assay with HOP-62 NSCLC; 0.216 µM with NCI-H522 lung; 1.64 µM with TK-10 renal. The GI50 in the assay on CAKI-1 renal was 1.11 µM. The TGI in the assay with SF-539 CNS came to 2.46 µM; in the assay on SK-MEL-28 melanoma, 3.15 µM; in the assay on 786-0 renal, 2.85 µM; with HOP-62 NSCLC it was 3.41 µM; in the assay with NCI-H522 lung, 0.515 µM; in the assay on TK-10 renal, 3.03 µM. Further, in the assay on CAKI-1 renal, the TGI came to 2.38 µM.
For `O=C1Cc2cc(CCN3CCNCC3)c(Cl)cc2N1`, the GI50 is over 100 µM in the assay with SF-539 CNS; 37 µM with SK-MEL-28 melanoma; over 100 µM in the assay on 786-0 renal; 19.3 µM in the assay on HOP-62 NSCLC; 4.86 µM with NCI-H522 lung; 29.1 µM with T-47D breast. The GI50 with CAKI-1 renal was 6.11 µM. The TGI in the assay with SF-539 CNS, with SK-MEL-28 melanoma, in the assay with 786-0 renal, in the assay with HOP-62 NSCLC, in the assay on NCI-H522 lung and in the assay with T-47D breast was over 100 µM in each case. This compound also came in with a TGI in the assay with CAKI-1 renal of over 100 µM.
In the case of `CC1=C(C(=O)Nc2ccc(Cl)c(Cl)c2)C(c2cccc(Cl)c2)NC(=S)N1` (configuration not stated), the GI50 is 15.6 µM in the assay with SK-MEL-28 melanoma; 8.79 µM in the assay on 786-0 renal; 10.3 µM in the assay on HOP-62 NSCLC; 17.7 µM with TK-10 renal; 31.5 µM with T-47D breast; 14.2 µM with CAKI-1 renal. Also, the TGI with SK-MEL-28 melanoma was over 50 µM; with 786-0 renal, 18.3 µM; in the assay with HOP-62 NSCLC, 19.2 µM; in the assay with TK-10 renal, over 50 µM; in the assay on T-47D breast, over 50 µM; in the assay on CAKI-1 renal, over 50 µM.
Consider `O=C1C=CC(=O)c2c1nc(CBr)[nH]c2=O`, for which the TGI in the assay on SF-539 CNS, in the assay on SK-MEL-28 melanoma, in the assay with 786-0 renal, in the assay with HOP-62 NSCLC, in the assay on NCI-H522 lung and in the assay on T-47D breast was over 100 µM in each case. In the assay with CAKI-1 renal, the TGI is over 100 µM.
